From ChEMBL document CHEMBL2069255, “Synthesis and DNA binding properties of 1-(3-aminopropyl)-imidazole-containing triamide f-Im*PyIm: a novel diamino polyamide designed to target 5'-ACGCGT-3'” (Bioorg Med Chem Lett, 2012) come the findings set out here.

Activity calls are given as the source filed them. No cut-off for these calls is given here.

Type in all cases: nucleic-acid assay
The subject of assay [1] is Nucleic Acid. Briefly: Binding affinity to AAATTT DNA by SPR assay.
Assay [2] relates to Nucleic Acid. Briefly: Binding affinity to ACGCGT DNA assessed as change in melting temperature by thermal denaturation assay.
Assay [3] deals with Nucleic Acid. Kind of assay: Binding affinity to AAATTT DNA assessed as change in melting temperature by thermal denaturation assay.
Assay [4] concerns Nucleic Acid. Briefly: Binding affinity to ACGCGT DNA by ITC assay. (Isothermal titration calorimetry measures the heat released or taken up as one component is titrated into another.)
The subject of assay [5] is Nucleic Acid. Kind of assay: Binding affinity to ACGCGT DNA by SPR assay. In general terms: SPR reads the build-up and loss of mass on a sensor chip optically.
For assay [6], the system named is Nucleic Acid. Kind of assay: Binding affinity to ATGCAT DNA assessed as change in melting temperature by thermal denaturation assay.
In assay [7] the test system is Nucleic Acid. Kind of assay: Binding affinity to ACATGT DNA by SPR assay.

In general, ΔTm refers to the change in melting temperature against a reference sample. Regarding `CN(C)CCNC(=O)c1nc(NC(=O)c2cc(NC(=O)c3nc(NC=O)cn3C)cn2C)cn1C`, the Ke with Nucleic Acid [1] came to 5.3 ×10⁴ /M; in the assay on Nucleic Acid [5], 1.9 ×10⁸ /M. The figures for the ΔTm with Nucleic Acid [2] and with Nucleic Acid [3] were 7.8 °C and 1 °C, respectively. Further, the result with Nucleic Acid [4] was Active.

Consider `CN(C)CCNC(=O)c1nc(NC(=O)c2cc(NC(=O)c3nc(NC=O)cn3CCCN)cn2C)cn1C`, for which the Ke in the assay on Nucleic Acid [1] was determined as 2.2 ×10⁶ /M; with Nucleic Acid [5], 2.3 ×10⁷ /M; with Nucleic Acid [7], 3.7 ×10⁶ /M. The thermal shift (ΔTm) was > 20 °C with Nucleic Acid [2], 11 °C in the assay on Nucleic Acid [3] and 20 °C in the assay on Nucleic Acid [6]. Further, the result in the assay on Nucleic Acid [4] was Active.

Regarding `CN(C)CCNC(=O)c1nc(NC(=O)c2cc(NC(=O)c3nc(NC=O)cn3C)cn2CCCN)cn1C`, the ΔTm in the assay on Nucleic Acid [2] is > 24 °C; in the assay with Nucleic Acid [3], 10 °C; in the assay with Nucleic Acid [6] it was 24 °C. Besides, in the assay with Nucleic Acid [4], the result was Active. This compound showed a Ke in the assay with Nucleic Acid [5] of 2.4 ×10⁸ /M.
